Experiment: Degradation of crosslinking agent after incubation in saturated NO solution (1H NMR, FT-IR, UV-Vis)
Assay type: physicochemical
Details: incubation in a saturated NO solution; primary amine peak disappeared, benzotriazole formed
Source text: The mechanism by which the above synthesized crosslinking agent DA-NOCCL reacts with nitric oxide to degrade and the ^1H NMR, FT-IR, and UV-Vis absorption data confirming this are shown in FIGS. 4 and 5.

## C#CCCC(=O)Nc1ccc(NC(=O)CCC#C)c(N)c1 [DA-NOCCL]
  degradation in response to NO: can be degraded in response to NO

Reference: patent US12564598B2, “Nitric oxide-sensitive hydrogel” (POSTECH RESEARCH AND BUSINESS DEVELOPMENT FOUNDATION, priority 2021, dated 2026)
